Measured values reported in ChEMBL document CHEMBL1130630, “Structure-based design of peptidomimetic ligands of the Grb2-SH2 domain” (Bioorg Med Chem Lett, 1998).
Square brackets hold non-standard residues; d marks the D form. Peptide text beside a SMILES is read from it. pY = N[C@@H](Cc1ccc(OP(=O)(O)O)cc1)C(=O)O

Biological target: Growth factor receptor-bound protein 2 (Homo sapiens, UniProt P62993)
Experiment: Inhibition of Growth factor receptor bound protein 2 SH2 domain binding to phospho-EGFR by ELISA

Chain of Growth factor receptor-bound protein 2 (P62993 whole entry, the tested form may be a part): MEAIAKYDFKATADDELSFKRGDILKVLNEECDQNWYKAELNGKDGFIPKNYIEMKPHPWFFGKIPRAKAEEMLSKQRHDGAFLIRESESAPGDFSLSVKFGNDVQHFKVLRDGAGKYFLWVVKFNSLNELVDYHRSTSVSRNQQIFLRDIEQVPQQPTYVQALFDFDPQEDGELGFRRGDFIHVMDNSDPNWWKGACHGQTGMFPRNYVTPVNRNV

Row | Structure (SMILES) | IC50
1 | CC(=O)N[C@@H](Cc1ccc(OP(=O)(O)O)cc1)C(=O)N[C@@H](CCC(N)=O)C(=O)N[C@@H](CC(N)=O)C(N)=O (Ac-[pY]-Gln-Asn-NH2) | 5.44 µM
2 | CC(=O)N[C@@H](Cc1ccc(OP(=O)(O)O)cc1)C(=O)N[C@H](c1cccc(NC(N)=O)c1)C(C)C | 6.19 µM
3 | CC(=O)N[C@@H](Cc1ccc(OP(=O)(O)O)cc1)C(=O)NCc1cccc(NC(N)=O)c1 | 48.7 µM
4 | CC(=O)N[C@@H](Cc1ccc(OP(=O)(O)O)cc1)C(=O)NCC(=O)N[C@@H](CC(N)=O)C(N)=O (Ac-[pY]-Gly-Asn-NH2) | 67 µM
5 | CC(=O)N[C@@H](Cc1ccc(OP(=O)(O)O)cc1)C(=O)N[C@H](C(=O)N[C@@H](CC(N)=O)C(N)=O)C(C)C (Ac-[pY]-Val-Asn-NH2) | 4.32 µM
6 | CC(=O)N[C@@H](Cc1ccc(OP(=O)(O)O)cc1)C(=O)N[C@@H](CCC(N)=O)c1cccc(NC(N)=O)c1 | 6.5 µM
